Here are results for 7 compounds from patent US20060247251A1, “2-Cyanopyrrolopyrimidines and pharmaceutical uses thereof” (priority 2003, published 2006).

The target in this assay is recombinant human cathepsin S (Homo sapiens, UniProt P25774). Kind of assay: in vitro cathepsin S assay. In kind it is biochemical. The following applies: substrate Z-Leu-Leu-4-methylcoumaryl-7-amide, pH 7.0, ambient temperature, read-out: IC50 for the inhibition of human cathepsin S. The procedure: The in vitro assay is carried out in clear, flat-bottomed, 96-well microtiter plates (Greiner GmbH, Germany) at ambient temperature using recombinant human cathepsin S. Inhibition of human cathepsin S is assayed at a constant enzyme and various substrate concentrations (substrate is Z-Leu-Leu-4-methylcoumaryl-7-amide (Bachem (Switzerland)) in 100 parts 0.2M sodium phosphate, pH 7.0, containing 2 mM EDTA, 2 parts 1% Triton X-100, 10 parts 20 mM dithlothreitol (DTT) and 58 parts distilled water. The assay is started by adding the enzyme solution (13 times higher concentration of final concentration of recombinant human Cathepsin S) to the reaction mixture containing various concentrations of the corresponding substrate and the compound. Substrate concentrations between 3.4 and 17 μM are used. The recombinant human Cathepsin S is used at a final concentration of 0.04 nM. Test compounds are used at concentrations between 0.4 and 2 times the determined IC50 of the compound at the enzyme. The relative fluorescence is continuously measured for 30 minutes and the initial velocity is obtained from each progress curve. […]
Chain of recombinant human cathepsin S (P25774 115-331): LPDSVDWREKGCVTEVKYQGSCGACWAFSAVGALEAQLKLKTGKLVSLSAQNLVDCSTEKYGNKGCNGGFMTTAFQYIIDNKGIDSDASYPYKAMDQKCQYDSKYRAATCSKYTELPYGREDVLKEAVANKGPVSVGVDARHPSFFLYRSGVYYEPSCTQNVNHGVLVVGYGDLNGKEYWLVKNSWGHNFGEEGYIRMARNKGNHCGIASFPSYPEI
Turning to `N#Cc1ncc2cc(CN3CCCC3)n(CCC3CCCCC3)c2n1` [Example 278], the IC50 stood at 33 nM.
For `N#Cc1ncc2cc(Cc3ccc(F)c(F)c3)n(CCc3ccc(Cl)cc3)c2n1` [Example 169] the value was 30 nM; for `CC(C)CCn1c(Cc2cccs2)cc2cnc(C#N)nc21` [Example 193], 4.1 nM.
The value for `CC(C)(C)CCn1c(Cc2ccc(CO)cc2)cc2cnc(C#N)nc21` [Example 175] was 5.1 nM; that for `N#Cc1ncc2cc(Cc3ccc(N4CCCC4=O)cc3)n(CCC3CCCCC3)c2n1` [Example 179, 7-(2-Cyclohexyl-ethyl)-6-[4-(2-oxo-pyrrolidin-1-yl)-benzyl]-7H-pyrrolo[2,3-d]pyrimidine-2-carbonitrile] was 35 nM.
The value for `CC(=O)N1CCC2(CCN(Cc3cc4cnc(C#N)nc4n3CCC3CCCCC3)CC2)C1` [Example 335, 6-(2-Acetyl-2,8-diaza-spiro[4,5]dec-8-ylmethyl)-7-(2-cyclohexyl-ethyl)-7H-pyrrolo[2,3-d]pyrimidine-2-carbonitrile] was 48 nM.
Take `CCCNC(=O)c1ccc(OCc2cc3cnc(C#N)nc3n2CCC2CCCCC2)c(Cl)c1` [Example 54]: the 50% inhibitory concentration (IC50) is 32 nM.

A word on the IC50: it is the midpoint of a concentration-inhibition curve.
